Assay results published in patent US7538102B2, “Compounds for the treatment of Hepatitis C” (Bristol-Myers Squibb Company, priority 2007, dated 2009).
Like-named read-outs stand apart in the source and are kept apart here.

Experiments:
HCV NS5B = target: T1, HCV NS5B (Hepatitis C virus genotype 1b, UniProt Q9WMX2); experiment: HCV NS5B RdRp enzyme assay (standard or modified); format: biochemical
T1 construct: The protein was expressed with an 18 amino acid C-terminal truncation to enhance the solubility; made in house; host or cells: E. coli BL21(DE3)
Experimental: HCV NS5B RdRp cloning, expression, and purification. The cDNA encoding the NS5B protein of HCV, genotype 1b, was cloned into the pET21a expression vector. The protein was expressed with an 18 amino acid C-terminal truncation to enhance the solubility. The E. coli competent cell line BL21(DE3) was used for expression of the protein. Cultures were grown at 37° C. for ˜4 hours until the cultures reached an optical density of 2.0 at 600 nm. The cultures were cooled to 20° C. and induced with 1 mM IPTG. Fresh ampicillin was added to a final concentration of 50 μg/ml and the cells were grown overnight at 20° C.
Cell pellets (3 L) were lysed for purification to yield 15-24 mgs of purified NS5B. The lysis buffer consisted of 20 mM Tris-HCl, pH 7.4, 500 mM NaCl, 0.5% triton X-100, 1 mM DTT, 1mM EDTA, 20% glycerol, 0.5 mg/ml lysozyme, 10 mM MgCl2, 15 ug/ml deoxyribonuclease I, and Complete TM protease inhibitor tablets (Roche). After addition of the lysis buffer, frozen cell pellets were resuspended using a tissue homogenizer. To reduce the viscosity of the sample, aliquots of the lysate were sonicated on ice using a microtip attached to a Branson sonicator. The sonicated lysate was centrifuged at 100,000×g for 1 hr at 4° C. and filtered through a 0.2 μm filter unit (Corning).
The protein was purified using two sequential chromatography steps: Heparin sepharose CL-6B and polyU sepharose 4B (Pharmacia). The chromatography buffers were identical to the lysis buffer but contained no lysozyme, deoxyribonuclease I, MgCl2 or protease inhibitor and the NaCl concentration of the buffer was adjusted according to the requirements for charging the protein onto the column. Each column was eluted with a NaCl gradient which varied in length from 5-50 column volumes depending on the column type. After the final chromatography step, the resulting purity of the enzyme is >90% based on SDS-PAGE analysis. The enzyme was aliquoted and stored at −80° C.
Standard HCV NS5B RdRp enzyme assay. HCV RdRp genotype 1b assays were run in a final volume of 60 μl in 96 well plates (Corning 3600). The assay buffer is composed of 20 mM Hepes, pH 7.5, 2.5 mM KCl, 2.5 mM MgCl2, 1 mM DTT, 1.6 U RNAse inhibitor (Promega N2515), 0.01 mg/ml BSA (Sigma B6917), and 2% glycerol. All compounds were serially diluted (3-fold) in DMSO and diluted further in water such that the final concentration of DMSO in the assay was 2%. HCV RdRp genotype 1b enzyme was used at a final concentration of 28 nM. A polyA template was used at 6 nM, and a biotinylated oligo-dT12 primer was used at 180 nM final concentration. Template was obtained commercially (Amersham 27-4110). Biotinylated primer was prepared by Sigma Genosys. 3H-UTP was used at 0.6 μCi (0.29 μM total UTP). Reactions were initiated by the addition of enzyme, incubated at 30° C. for 60 min, and stopped by adding 25 μl of 50 mM EDTA containing SPA beads (4 μg/pl, Amersham RPNQ 0007). Plates were read on a Packard Top Count NXT after >1 hr incubation at room temperature.
Modified HCV NS5B RdRp enzyme assay. A modified enzyme assay was performed essentially as described for the standard enzyme assay except for the following: The biotinylated oligo dT12 primer was precaptured on streptavidin-coated SPA beads by mixing primer and beads in assay buffer and incubating at room temperature for one hour. Unbound primer was removed after centrifugation. The primer-bound beads were resuspended in 20 mM Hepes buffer, pH 7.5 and used in the assay at final concentrations of 20 nM primer and 0.67 μg/μl beads. Order of addition in the assay: enzyme (1.75 nM) was added to diluted compound followed by the addition of a mixture of template (0.36 nM), 3H-UTP (0.6 μCi, 0.29 μM), and primer-bound beads, to initiate the reaction; concentrations given are final. Reactions were allowed to proceed for 4 hours at 30° C.
IC50 values for compounds were determined using seven different [I]. […]

HCV replicon = HCV replicon FRET / luciferase assay; format: cell-based; conditions: Hepatitis C virus
Experimental: FRET Assay Preparation. The HCV FRET screening assay was performed in 96-well cell culture plates. The FRET peptide (Anaspec, Inc.) (Taliani et al., Anal. Biochem. 1996, 240, 60-67) contains a fluorescence donor, EDANS, near one end of the peptide and an acceptor, DABCYL, near the other end. The fluorescence of the peptide is quenched by […] resonance energy transfer (RET) between the donor and the acceptor, but as the NS3 protease cleaves the peptide the products are released from RET quenching and the fluorescence of the donor becomes apparent. The assay reagent was made as follows: 5× cell Luciferase cell culture lysis reagent from Promega (#E153A) diluted to 1× with dH2O, NaCl added to 150 mM final, the FRET peptide diluted to 20 μM final from a 2 mM stock.
To prepare plates, HCV replicon cells, with or without a Renilla luciferase reporter gene, were trypsinized and plated in a 96-well plate with titrated test compounds added in columns 3 through 12; columns 1 and 2 contained a control compound (HCV control inhibitor), and the bottom row contained cells with DMSO only. The plates were then placed in a CO2 incubator at 37° C.
Assays. Subsequent to addition of the test compounds described above (FRET Assay Preparation), at various times the plate was removed and Alamar blue solution (Trek Diagnostics, #00-100) was added to measure cellular toxicity. After reading in a Cytoflour 4000 instrument (PE Biosystems), plates were rinsed with PBS and then used for FRET assay by the addition of 30 ul of the FRET peptide assay reagent described above (FRET Assay Preparation) per well. The plate was then placed into the Cytoflour 4000 instrument which had been set to 340 excite/490 emission, automatic mode for up to 20 cycles and the plate read in a kinetic mode. Typically, the signal to noise using an endpoint analysis after the reads was at least three-fold. Alternatively, after Alamar blue reading, plates were rinsed with PBS, then used for luciferase assay using the Promega Dual-Glo Luciferase Assay System or the Promega EnduRen Live Cell Substrate assay.
Compound analysis was performed by quantification of the relative HCV replicon inhibition and the relative cytotoxicity values. To calculate cytoxicity values, the average Alamar Blue fluorescence signals from the control wells were set as 100% non-toxic. The individual signals in each of the compound test wells were then divided by the average control signal and multiplied by 100% to determine […]. To calculate the HCV replicon inhibition values, an average background value was obtained from the two wells containing the highest amount of HCV control inhibitor at the end of the assay period. These numbers were similar to those obtained from naive Huh-7 cells. The background numbers were then subtracted from the average signal obtained from the control wells and this number was used as 100% activity. The individual signals in each of the compound test wells were then divided by the averaged control values after background subtraction and multiplied by 100% to determine percent activity. EC50 values were calculated as the concentration which caused a 50% reduction in FRET or luciferase activity. The two numbers generated for the compound plate, percent cytoxicity and percent activity, were used to determine compounds of interest for further analysis.

[1] = HCV NS5B RdRp genotype 1b, standard or modified enzyme assay not specified, read-out: IC50
[2] = HCV replicon cells, 50% reduction in FRET or luciferase activity, read-out: EC50

T1 sequence (Q9WMX2 2420-2992): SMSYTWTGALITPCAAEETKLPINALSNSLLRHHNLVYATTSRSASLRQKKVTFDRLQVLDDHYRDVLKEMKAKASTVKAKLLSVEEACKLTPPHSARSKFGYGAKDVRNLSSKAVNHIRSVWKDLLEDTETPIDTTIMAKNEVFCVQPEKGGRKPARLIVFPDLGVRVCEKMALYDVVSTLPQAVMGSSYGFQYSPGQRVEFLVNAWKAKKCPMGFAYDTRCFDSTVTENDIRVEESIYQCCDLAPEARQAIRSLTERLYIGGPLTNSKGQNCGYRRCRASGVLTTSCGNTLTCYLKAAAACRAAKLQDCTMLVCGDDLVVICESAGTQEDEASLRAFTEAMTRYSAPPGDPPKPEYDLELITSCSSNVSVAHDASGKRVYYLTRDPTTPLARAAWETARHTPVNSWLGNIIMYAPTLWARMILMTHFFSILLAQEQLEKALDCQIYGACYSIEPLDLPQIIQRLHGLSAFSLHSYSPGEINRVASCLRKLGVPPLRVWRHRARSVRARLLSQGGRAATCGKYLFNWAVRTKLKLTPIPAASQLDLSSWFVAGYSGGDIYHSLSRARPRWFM

Compound	IC50 (HCV NS5B; [1])	EC50 (HCV replicon; [2])	IC50 (HCV NS5B)	EC50 (HCV replicon)
COc1ccc2c(c1)C1CC1(C(=O)O[C@@H]1C[C@@H]3CC[C@@]1(C)C3(C)C)Cn1c-2c(C2CCCCC2)c2ccc(C(=O)NS(=O)(=O)N(C)C)cc21 (stereo partly drawn)	3 to 1000 nM	> 1000 nM	–	–
COc1ccc2c(c1)C1CC1(C(=O)N(C)C1CCN(C)C1)Cn1c-2c(C2CCCCC2)c2ccc(C(=O)NS(=O)(=O)N(C)C)cc21 (stereo not drawn)	3 to 1000 nM	3 to 1000 nM	–	–
COc1ccc2c(c1)C1CC1(C(=O)N(C)C1CCN(C)CC1)Cn1c-2c(C2CCCCC2)c2ccc(C(=O)NS(=O)(=O)N(C)C)cc21 (stereo not drawn)	3 to 1000 nM	3 to 1000 nM	–	–
COc1ccc2c(c1)C1CC1(C(=O)N(C)C(CN(C)C)c1ccccc1)Cn1c-2c(C2CCCCC2)c2ccc(C(=O)NS(=O)(=O)N(C)C)cc21 (stereo not drawn)	3 to 1000 nM	3 to 1000 nM	–	–
COc1ccc2c(c1)C1CC1(C(=O)N1CCCC1CN1CCCC1)Cn1c-2c(C2CCCCC2)c2ccc(C(=O)NS(=O)(=O)N(C)C)cc21 (stereo not drawn)	3 to 1000 nM	3 to 1000 nM	–	–
COc1ccc2c(c1)C1CC1(C(=O)N(C)CCN1CCCC1)Cn1c-2c(C2CCCCC2)c2ccc(C(=O)NS(=O)(=O)N(C)C)cc21 (stereo not drawn)	3 to 1000 nM	3 to 1000 nM	–	–
COc1ccc2c(c1)C1CC1(C(=O)N(C)CC1CCCN1C)Cn1c-2c(C2CCCCC2)c2ccc(C(=O)NS(=O)(=O)N(C)C)cc21 (stereo not drawn)	3 to 1000 nM	3 to 1000 nM	–	–
COc1ccc2c(c1)C1CC1(C(=O)N(C)CC1CCCCN1C)Cn1c-2c(C2CCCCC2)c2ccc(C(=O)NS(=O)(=O)N(C)C)cc21 (stereo not drawn)	3 to 1000 nM	3 to 1000 nM	–	–
COc1ccc2c(c1)C1CC1(C(=O)N(C)[C@@H]1CCCC[C@H]1N(C)C)Cn1c-2c(C2CCCCC2)c2ccc(C(=O)NS(=O)(=O)N(C)C)cc21 (stereo partly drawn)	3 to 1000 nM	3 to 1000 nM	–	–
COc1ccc2c(c1)C1CC1(C(=O)N(C1CC1)[C@@H]1CCCC[C@H]1N(C)C)Cn1c-2c(C2CCCCC2)c2ccc(C(=O)NS(=O)(=O)N(C)C)cc21 (stereo partly drawn)	3 to 1000 nM	3 to 1000 nM	–	–
COc1ccc2c(c1)C1CC1(C(=O)N[C@@H]1CCC[C@H]1N(C)C)Cn1c-2c(C2CCCCC2)c2ccc(C(=O)NS(=O)(=O)N(C)C)cc21 (stereo partly drawn)	3 to 1000 nM	3 to 1000 nM	–	–
COc1ccc2c(c1)C1CC1(C(=O)N1CCCN(C(=O)OC(C)(C)C)CC1)Cn1c-2c(C2CCCCC2)c2ccc(C(=O)NS(=O)(=O)C3CC3)cc21 (stereo not drawn)	3 to 1000 nM	–	–	–
COc1ccc2c(c1)C1CC1(C(=O)N1CCCN(CCCN3CCOCC3)CC1)Cn1c-2c(C2CCCCC2)c2ccc(C(=O)NS(=O)(=O)C(C)C)cc21 (stereo not drawn)	3 to 1000 nM	–	–	–
COc1ccc2c(c1)C=C(C(=O)N1CCCN(CCCN3CCOCC3)CC1)Cn1c-2c(C2CCCCC2)c2ccc(C(=O)NS(=O)(=O)C3CC3)cc21	3 to 1000 nM	–	–	–
COc1ccc2c(c1)C1CC1(C(=O)NC1CC3CCC(C1)N3C)Cn1c-2c(C2CCCCC2)c2ccc(C(=O)NS(=O)(=O)N(C)C)cc21 (stereo not drawn)	–	–	3 to 1000 nM	3 to 1000 nM
COc1ccc2c(c1)C1CC1(C(=O)N[C@@H]1CC3CCN1CC3)Cn1c-2c(C2CCCCC2)c2ccc(C(=O)NS(=O)(=O)N(C)C)cc21 (stereo partly drawn)	–	–	3 to 1000 nM	3 to 1000 nM
COc1ccc2c(c1)C1CC1(C(=O)N(C)C1CC3CCC1N3C)Cn1c-2c(C2CCCCC2)c2ccc(C(=O)NS(=O)(=O)N(C)C)cc21 (stereo not drawn)	–	–	3 to 1000 nM	3 to 1000 nM
COc1ccc2c(c1)C1CC1(C(=O)N1CCN(CC(=O)N3CCCC3)CC1)Cn1c-2c(C2CCCCC2)c2ccc(C(=O)NS(=O)(=O)C(C)C)cc21 (stereo not drawn)	3 to 1000 nM	3 to 1000 nM	–	–
COc1ccc2c(c1)C1CC1(C(=O)N1CCN(Cc3ccccc3)C[C@H]1C)Cn1c-2c(C2CCCCC2)c2ccc(C(=O)NS(C)(=O)=O)cc21 (stereo partly drawn)	3 to 1000 nM	3 to 1000 nM	–	–
COc1ccc2c(c1)C1CC1(C(=O)N1CCN(C(=O)OC(C)(C)C)C[C@H]1c1ccccc1)Cn1c-2c(C2CCCCC2)c2ccc(C(=O)NS(C)(=O)=O)cc21 (stereo partly drawn)	3 to 1000 nM	3 to 1000 nM	–	–
COc1ccc2c(c1)C1CC1(C(=O)N1CCN(C)CC1c1ccccc1)Cn1c-2c(C2CCCCC2)c2ccc(C(=O)NS(=O)(=O)N(C)C)cc21 (stereo not drawn) [drawing 46]	3 to 1000 nM	–	–	–
COc1ccc2c(c1)C1CC1(C(=O)N1CCN(C)CC1c1ccccc1)Cn1c-2c(C2CCCCC2)c2ccc(C(=O)NS(=O)(=O)C(C)C)cc21 (stereo not drawn) [drawing 56]	3 to 1000 nM	–	–	–
COc1ccc2c(c1)C1CC1(C(=O)N1CCN(C)CC1c1ccccc1)Cn1c-2c(C2CCCCC2)c2ccc(C(=O)NS(=O)(=O)N(C)C)cc21 (stereo not drawn) [drawing 64]	3 to 1000 nM	–	–	–
COc1ccc2c(c1)C1CC1(C(=O)N1CCN(C)CC1c1ccccc1)Cn1c-2c(C2CCCCC2)c2ccc(C(=O)NS(=O)(=O)N(C)C)cc21 (stereo not drawn) [drawing 65]	3 to 1000 nM	–	–	–
COc1ccc2c(c1)C1C[C@]1(C(=O)N1CCN(C)CC1c1ccccc1)Cn1c-2c(C2CCCCC2)c2ccc(C(=O)NS(=O)(=O)C(C)C)cc21 (stereo partly drawn) [drawing 79]	3 to 1000 nM	–	–	–
